Experimental findings from patent US20260216294A1, “BETA 2-ADRENERGIC RECEPTOR AGONISTS FOR TREATMENT OR PREVENTION OF MUSCLE WASTING” (ATROGI AB, priority 2023, published 2026) are described below.

Test [1] deals with L6-myotubes. The test can be described thus: Glucose uptake in differentiated L6-myotubes (Biological Example 2). The format is cell-based. Particulars: for Emax at 10 µM: read-out: Biological example 2 (GU). As for the experimental part: (§1) Compounds described in publications referenced and incorporated herein were screened in accordance with the procedures outlined in Biological example 2 and Biological example 3.
Differentiated L6-myotubes were serum-starved overnight in medium containing 0.5% fatty-acid free BSA and stimulated with isoprenaline or the test compound, with a final concentration of 1×10^−5 M. After 1 h 40 min the cells were washed with warm glucose free medium or PBS twice and another portion of agonist was added to the glucose free medium. After 20 min the cells were exposed to 50 nM ^3H-2-deoxyglucose for 10 min before washed with ice cold glucose free medium or PBS three times and lysed with 0.2 M NaOH, 400 μL/well, for 1 h at 60° C. The cell lysate was mixed with 4 mL scintillation buffer (Emulsifier Safe, Perkin Elmer) and the radioactivity was detected in a […] (Tri-Carb 4810TR, Perkin Elmer).

Test [2] has as its system L6-myotubes. Nature of the test: Measurement of intracellular cAMP levels in differentiated L6-myotubes (Biological Example 3). The format is cell-based. The settings on record: intracellular cAMP, compound at 10 μM relative to isoproterenol at 10 μM; for Emax at 10 µM: 0.25 h. As for the experimental part:
as §1
Differentiated L6-myotubes were serum-starved overnight and stimulated with isoprenaline or the test compound with a final concentration of 1×10^−5 M, for 15 min in stimulation buffer (HBSS supplemented with 1% BSA, 5 mM HEPES and 1 mM IBMX, pH 7.4). The medium was aspirated and 100 μL of 95% EtOH was added to each well of the 24-well plate and cells were kept at −20° C. overnight. The EtOH was allowed to evaporate and 500 μL of lysis buffer (1% BSA, 5 mM HEPES and 0.3% Tween-20, pH 7.4) was added to each well. The plate was kept at −80° C. for 30 min and then at −20° C. until the day of detection when the samples were thawed. Intracellular cAMP levels were detected using an alpha screen cAMP kit (6760635D from Perkin Elmer).
Background: Cyclic AMP is a second messenger, typically raised through Gs and lowered through Gi signalling.

Where [3] appears, read: glucose uptake, compound at 10 μM relative to isoproterenol at 10 μM.
Setting [4] is: glucose uptake in differentiated L6-myotubes, compound at 10 μM, activity relative to isoproterenol at 10 μM.

`C[C@H]1CC[C@@H]([C@H](O)c2ccccc2)N1` (racemic) [Compound 38, Racemic mixture of (R)-[(2S,5S)-5-methyl-2-pyrrolidinyl]phenylmeth anol and (S)-[(2R,5R)-5-methyl-2-pyrrolidinyl]] phenylmethanol]: the Emax at 10 µM in test [1] (setting [3]) is 25 to 50%; in test [2], less than 25%.

As for `C[C@H]1CC[C@@H]([C@@H](O)c2ccccc2)N1` (racemic) [Compound 39, Racemic mixture of (R)-[(2R,5R)-5-methyl-2-pyrrolidinyl] phenylmethanol and (S)-[(2S,5S)-5-methyl-2-pyrrolidinyl] phenylmethanol], the Emax at 10 µM in test [1] (setting [3]) is 50 to 75%; in test [2], less than 25%.

Take `C[C@H]1CC[C@@H]([C@H](O)c2cccc(O)c2)N1` (racemic) [Compound 40, Racemic mixture of m-{(R)-[(2S,5S)-5-methyl-2-pyrrolidinyl] hydroxymethyl} phenol and m-{(S)-[(2R,5R)-5-methyl-2-pyrrolidinyl] hydroxymethyl} phenol]: the figures for the Emax at 10 µM in test [1] (setting [3]) and in test [2] were 50 to 75% and less than 25%, respectively.

With `C[C@H]1CC[C@@H]([C@@H](O)c2cccc(O)c2)N1` (racemic) [Compound 41, Racemic mixture of m-{(R)-[(2R,5R)-5-methyl-2-pyrrolidinyl] hydroxymethyl}phenol and m-{(S)-[(2S,5S)-5-methyl-2-pyrrolidinyl] hydroxymethyl}phenol], the results for the Emax at 10 µM in test [1] (setting [3]) and in test [2] were greater than 75% and less than 25%, respectively.

Regarding `CCC[C@@H]1CC[C@H](C(O)c2cccc(O)c2)N1` (stereo in doubt) [Compound 57, m-{(R)-[(2R,5R)-5-propyl-2-pyrrolidinyl] hydroxymethyl}phenol], the “Biological example 2 (GU)” value in test [1] (setting [3]) is given as “+++ (If a compound at 10 μM shows activity of more than 75% of that of isoproterenol at 10 μM, the activity is denoted with +++)”. Also, in test [2], the “Biological example 3 (CAMP)” value was “++ (if it is between 75 and 50% it is denoted with ++)”.

Take `CC1(C)CCC([C@H](O)c2ccccc2F)N1` (stereo in doubt) [Compound 175, (R)-[(R)-5,5-dimethyl-2-pyrrolidinyl](o-fluorophenyl)methanol]: the Emax at 10 µM in test [1] (setting [3]) is greater than 75%; in test [2] it was 25 to 50%.

With `CCCCNCC(O)c1ccc(O)cc1` (centres unmarked) [Compound 1, 2-(butylamino)-1-(p-hydroxyphenyl)-1-ethanol], in test [1] (setting [3]), the Emax at 10 µM was greater than 75%.

In the case of `CCCCNCC(O)c1cccc(Cl)c1` (centres unmarked) [Compound 2, 2-(butylamino)-1-(m-chlorophenyl)-1-ethanol], the Emax at 10 µM in test [1] (setting [3]) was 25 to 50%; in test [2], less than 25%.

As to `Oc1ccc(C(O)CNCC2CC2)cc1` (centres unmarked) [Compound 3, p-{2-[(cyclopropylmethyl)amino]-1-hydroxyethyl}phenol], the Emax at 10 µM in test [1] (setting [3]) was 50 to 75%; in test [2], less than 25%.

`CC(C)(C)NCC(O)c1ccc(O)cc1` (centres unmarked) [Compound 4, 2-(tert-butylamino)-1-(p-hydroxyphenyl)-1-ethanol]: the Emax at 10 µM was greater than 75% in test [1] (setting [3]) and 25 to 50% in test [2].

On to `Oc1ccc(C(O)CNCCCC(F)(F)F)cc1` (centres unmarked) [Compound 31, 1-(p-hydroxyphenyl)-2-(4,4,4-trifluorobutylamino)-1-ethanol], for which, in test [1] (setting [3]), the Emax at 10 µM was 50 to 75%.

In the case of `CN([C@H]1CC[C@H](CC(C)(C)NC[C@H](O)c2cccc(F)c2)CC1)S(C)(=O)=O` [Compound 499, (R)-2-{1,1-dimethyl-2-[(1r,4R)-4-(N-mesyl-N-methylamino)cyclohexyl]ethylamino}-1-(m-fluorophenyl)-1-ethanol], the Emax at 10 µM in test [1] (setting [4]) was in the range of 25 to 50%.

Take `O[C@@H](c1ccccc1F)C12CCC(CCc3cccnc3)(CC1)N2` [Compound 547, (S)-(o-fluorophenyl){4-[2-(3-pyridyl)ethyl]-7-azabicyclo[[2.2.1]]hept-1-yl}methanol]: in test [1] (setting [4]), the Emax at 10 µM is greater than 75%.

Regarding `CC(C)NCC(O)c1ccc(O)c(O)c1` (centres unmarked) [isoprenaline, reference compound], the glucose uptake entry in test [1] (L6-myotubes, FIGS. 2a-2d) was “full glucose uptake response”.
